Test results from patent US12187723B2 (BRISTOL-MYERS SQUIBB COMPANY, priority 2019, dated 2025).

Target: T1, human TLR8 (Homo sapiens, UniProt Q9NR97)
T1 construct: host or cells: HEK-Blue cells
T1 sequence (Q9NR97 27-1041): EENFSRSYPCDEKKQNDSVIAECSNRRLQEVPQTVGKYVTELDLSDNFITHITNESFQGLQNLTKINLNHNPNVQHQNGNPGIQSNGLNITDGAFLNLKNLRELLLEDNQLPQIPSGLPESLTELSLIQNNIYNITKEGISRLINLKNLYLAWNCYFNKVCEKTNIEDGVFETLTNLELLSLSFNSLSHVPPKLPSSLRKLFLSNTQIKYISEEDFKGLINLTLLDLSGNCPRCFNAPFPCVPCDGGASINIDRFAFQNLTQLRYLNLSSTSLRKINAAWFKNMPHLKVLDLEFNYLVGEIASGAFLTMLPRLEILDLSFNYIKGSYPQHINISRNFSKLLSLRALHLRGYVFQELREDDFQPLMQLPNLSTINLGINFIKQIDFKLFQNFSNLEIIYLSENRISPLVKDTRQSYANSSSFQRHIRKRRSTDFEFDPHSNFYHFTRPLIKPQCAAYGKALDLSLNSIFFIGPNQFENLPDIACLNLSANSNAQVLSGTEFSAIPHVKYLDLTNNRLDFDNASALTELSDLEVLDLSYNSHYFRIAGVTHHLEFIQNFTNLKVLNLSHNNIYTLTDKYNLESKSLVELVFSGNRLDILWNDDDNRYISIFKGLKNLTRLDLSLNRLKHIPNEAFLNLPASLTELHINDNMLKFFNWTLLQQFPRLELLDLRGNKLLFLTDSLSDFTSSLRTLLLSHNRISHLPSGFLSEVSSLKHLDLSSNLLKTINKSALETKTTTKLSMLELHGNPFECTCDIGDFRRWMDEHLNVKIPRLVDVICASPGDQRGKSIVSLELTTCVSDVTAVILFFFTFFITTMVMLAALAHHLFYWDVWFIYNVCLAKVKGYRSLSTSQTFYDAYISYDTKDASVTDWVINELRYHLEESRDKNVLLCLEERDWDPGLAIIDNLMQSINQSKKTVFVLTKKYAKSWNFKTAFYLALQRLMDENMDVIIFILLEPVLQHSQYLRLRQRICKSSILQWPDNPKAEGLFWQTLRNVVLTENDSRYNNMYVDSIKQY
Experiment: TLR8 inhibition reporter assay (HEK-Blue SEAP)
Format: cell-based
Settings: HEK-Blue cells overexpressing human TLR8, R848 15.9 μM, 22 hour incubation
Experimental: TLR7/8/9 Inhibition Reporter Assays
HEK-Blue™-cells (Invivogen) overexpressing human TLR7, TLR8 or TLR9 receptors were used for screening inhibitors of these receptors using an inducible SEAP (secreted embryonic alkaline phosphatase) reporter gene under the control of the IFN-β minimal promoter fused to five NF-κB and AP-1-binding sites. Briefly, cells are seeded into Greiner 384 well plates (15000 cells per well for TLR7, 20,000 for TLR8 and 25,000 for TLR9) and then treated with test compounds in DMSO to yield a final dose response concentration range of 0.05 nM-50 μM. After a 30 minute compound pre-treatment at room temperature, the cells are then stimulated with a TLR7 ligand (gardiquimod at a final concentration of 7.5 μM), TLR8 ligand (R848 at a final concentration of 15.9 μM) or TLR9 ligand (ODN2006 at a final concentration of 5 nM) to activate NF-κB and AP-1 which induce the production of SEAP. After a 22 hour incubation at 37° C., 5% CO2, SEAP levels are determined with the addition of HEK-Blue™ Detection reagent (Invivogen), a cell culture medium that allows for detection of SEAP, according to manufacturer's specifications. The percent inhibition is determined as the % reduction in the HEK-Blue signal present in wells treated with agonist plus DMSO alone compared to wells treated with a known inhibitor.

SMILES | IC50 [nM]
Cc1cc(-c2cc(C)c3ncnn3c2)cc2[nH]c(=O)n(C3CCN(CC(=O)N(C)C)CC3)c12 [Example 109, N,N-dimethyl-2-(4-(7-methyl-5-(8-methyl-[1,2,4]triazolo[1,5-a]pyridin-6-yl)-2-oxo-2,3-dihydro-1H-benzo[d]imidazol-1-yl)piperidin-1-yl)acetamide] | 541
CCN1CCC[C@@H](n2c(=O)[nH]c3cc(-c4cc(OC)c5ncnn5c4)c(C(F)(F)F)cc32)C1 [Example 110, (R)-1-(1-ethylpiperidin-3-yl)-5-(8-methoxy-[1,2,4]triazolo[1,5-a]pyridin-6-yl)-6-(trifluoromethyl)-1,3-dihydro-2H-benzo[d]imidazol-2-one] | 4.06
COc1cc(-c2cc3[nH]c(=O)n([C@@H]4CCCN(C(C)C)C4)c3cc2C(F)(F)F)cn2ncnc12 [Example 111, (R)-1-(1-isopropylpiperidin-3-yl)-5-(8-methoxy-[1,2,4]triazolo[1,5-a]pyridin-6-yl)-6-(trifluoromethyl)-1,3-dihydro-2H-benzo[d]imidazol-2-one] | 12.6
COc1cc(-c2cc3[nH]c(=O)n([C@@H]4CCCN(CC5CCOCC5)C4)c3cc2C(F)(F)F)cn2ncnc12 [Example 112, (R)-5-(8-methoxy-[1,2,4]triazolo[1,5-a]pyridin-6-yl)-1-(1-((tetrahydro-2H-pyran-4-yl)methyl)piperidin-3-yl)-6-(trifluoromethyl)-1,3-dihydro-2H-benzo[d]imidazol-2-one] | 20.3
COc1cc(-c2cc3[nH]c(=O)n([C@@H]4CCCN(C5COC5)C4)c3cc2C(F)(F)F)cn2ncnc12 [Example 113, (R)-5-(8-methoxy-[1,2,4]triazolo[1,5-a]pyridin-6-yl)-1-(1-(oxetan-3-yl)piperidin-3-yl)-6-(trifluoromethyl)-1,3-dihydro-2H-benzo[d]imidazol-2-one] | 113
COc1cc(-c2cc3[nH]c(=O)n([C@@H]4CCCN(C)C4)c3cc2C(F)(F)F)cn2ncnc12 [Example 114, (R)-5-(8-methoxy-[1,2,4]triazolo[1,5-a]pyridin-6-yl)-1-(1-methylpiperidin-3-yl)-6-(trifluoromethyl)-1,3-dihydro-2H-benzo[d]imidazol-2-one] | 0.29
CCCN1CCC[C@@H](n2c(=O)[nH]c3cc(-c4cc(OC)c5ncnn5c4)c(C(F)(F)F)cc32)C1 [Example 115, (R)-5-(8-methoxy-[1,2,4]triazolo[1,5-a]pyridin-6-yl)-1-(1-propylpiperidin-3-yl)-6-(trifluoromethyl)-1,3-dihydro-2H-benzo[d]imidazol-2-one] | 14.4
COc1cc(-c2cc3[nH]c(=O)n([C@@H]4CCCN(CC(C)(C)C)C4)c3cc2C(F)(F)F)cn2ncnc12 [Example 116, (R)-5-(8-methoxy-[1,2,4]triazolo[1,5-a]pyridin-6-yl)-1-(1-neopentylpiperidin-3-yl)-6-(trifluoromethyl)-1,3-dihydro-2H-benzo[d]imidazol-2-one] | 57.8
CCC(CC)CN1CCC[C@@H](n2c(=O)[nH]c3cc(-c4cc(OC)c5ncnn5c4)c(C(F)(F)F)cc32)C1 [Example 117, (R)-1-(1-(2-ethylbutyl)piperidin-3-yl)-5-(8-methoxy-[1,2,4]triazolo[1,5-a]pyridin-6-yl)-6-(trifluoromethyl)-1,3-dihydro-2H-benzo[d]imidazol-2-one] | 33.3
COCCN1CCC[C@@H](n2c(=O)[nH]c3cc(-c4cc(OC)c5ncnn5c4)c(C(F)(F)F)cc32)C1 [Example 118, (R)-5-(8-methoxy-[1,2,4]triazolo[1,5-a]pyridin-6-yl)-1-(1-(2-methoxyethyl)piperidin-3-yl)-6-(trifluoromethyl)-1,3-dihydro-2H-benzo[d]imidazol-2-one] | 22.7
COc1cc(-c2cc3[nH]c(=O)n([C@H]4CCCN(C)C4)c3cc2C(C)C)cn2ncnc12 [Example 119, (S)-6-isopropyl-5-(8-methoxy-[1,2,4]triazolo[1,5-a]pyridin-6-yl)-1-(1-methylpiperidin-3-yl)-1,3-dihydro-2H-benzo[d]imidazol-2-one] | 2.37
COc1cc(-c2cc3[nH]c(=O)n([C@H]4CCCN(C(C)C)C4)c3cc2C(C)C)cn2ncnc12 [Example 120, (S)-6-isopropyl-1-(1-isopropylpiperidin-3-yl)-5-(8-methoxy-[1,2,4]triazolo[1,5-a]pyridin-6-yl)-1,3-dihydro-2H-benzo[d]imidazol-2-one] | 0.8
CCCN1CCC[C@H](n2c(=O)[nH]c3cc(-c4cc(OC)c5ncnn5c4)c(C(C)C)cc32)C1 [Example 121, (S)-6-isopropyl-5-(8-methoxy-[1,2,4]triazolo[1,5-a]pyridin-6-yl)-1-(1-propylpiperidin-3-yl)-1,3-dihydro-2H-benzo[d]imidazol-2-one] | 1.82
COc1cc(-c2cc3[nH]c(=O)n([C@H]4CCCN(C5CCC5)C4)c3cc2C(C)C)cn2ncnc12 [Example 122, (S)-1-(1-cyclobutylpiperidin-3-yl)-6-isopropyl-5-(8-methoxy-[1,2,4]triazolo[1,5-a]pyridin-6-yl)-1,3-dihydro-2H-benzo[d]imidazol-2-one] | 1.5
COc1cc(-c2cc3[nH]c(=O)n([C@H]4CCCN(C5COC5)C4)c3cc2C(C)C)cn2ncnc12 [Example 123, (S)-6-isopropyl-5-(8-methoxy-[1,2,4]triazolo[1,5-a]pyridin-6-yl)-1-(1-(oxetan-3-yl)piperidin-3-yl)-1,3-dihydro-2H-benzo[d]imidazol-2-one] | 5.56
COc1cc(-c2cc3[nH]c(=O)n([C@H]4CCCN(C5CCOCC5)C4)c3cc2C(C)C)cn2ncnc12 [Example 124, (S)-6-isopropyl-5-(8-methoxy-[1,2,4]triazolo[1,5-a]pyridin-6-yl)-1-(1-(tetrahydro-2H-pyran-4-yl)piperidin-3-yl)-1,3-dihydro-2H-benzo[d]imidazol-2-one] | 4.33
COc1cc(-c2cc3[nH]c(=O)n([C@H]4CCCN(CC5CCOCC5)C4)c3cc2C(C)C)cn2ncnc12 [Example 125, (S)-6-isopropyl-5-(8-methoxy-[1,2,4]triazolo[1,5-a]pyridin-6-yl)-1-(1-((tetrahydro-2H-pyran-4-yl)methyl)piperidin-3-yl)-1,3-dihydro-2H-benzo[d]imidazol-2-one] | 2.37
COc1cc(-c2cc3[nH]c(=O)n([C@H]4CCCN(CC5CCOC5)C4)c3cc2C(C)C)cn2ncnc12 (stereo partly drawn) [Example 126, 6-isopropyl-5-(8-methoxy-[1,2,4]triazolo[1,5-a]pyridin-6-yl)-1-((3S)-1-((tetrahydrofuran-3-yl)methyl)piperidin-3-yl)-1,3-dihydro-2H-benzo[d]imidazol-2-one] | 3.64
COc1cc(-c2cc3[nH]c(=O)n([C@H]4CCCN(CC5CC5)C4)c3cc2C(C)C)cn2ncnc12 [Example 127, (S)-1-(1-(cyclopropylmethyl)piperidin-3-yl)-6-isopropyl-5-(8-methoxy-[1,2,4]triazolo[1,5-a]pyridin-6-yl)-1,3-dihydro-2H-benzo[d]imidazol-2-one] | 2.8
COc1cc(-c2cc3[nH]c(=O)n([C@H]4CCCN(CC(C)C)C4)c3cc2C(C)C)cn2ncnc12 [Example 129, (S)-1-(1-isobutylpiperidin-3-yl)-6-isopropyl-5-(8-methoxy-[1,2,4]triazolo[1,5-a]pyridin-6-yl)-1,3-dihydro-2H-benzo[d]imidazol-2-one] | 4
